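Each compound was tested at five concentrations against cells in 96-well plates for 48 hours. TGI: concentration producing complete growth inhibition.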
Assays:
Assay in all cases: growth of human tumour cells (NCI), 48 h
ACHN renal = test system: ACHN renal
BT-549 breast = test system: BT-549 breast
HS 578T breast = test system: HS 578T breast
DU-145 prostate = test system: DU-145 prostate
SNB-19 CNS = test system: SNB-19 CNS
CAKI-1 renal = test system: CAKI-1 renal
UACC-257 melanoma = test system: UACC-257 melanoma
SK-MEL-28 melanoma = test system: SK-MEL-28 melanoma
COLO 205 colon = test system: COLO 205 colon
SNB-75 CNS = test system: SNB-75 CNS
HT29 colon = test system: HT29 colon
SN12C renal = test system: SN12C renal
NCI-H460 lung = test system: NCI-H460 lung
OVCAR-8 ovarian = test system: OVCAR-8 ovarian
NCI-H23 lung = test system: NCI-H23 lung
UACC-62 melanoma = test system: UACC-62 melanoma
MDA-MB-231 breast = test system: MDA-MB-231 breast
SK-OV-3 ovarian = test system: SK-OV-3 ovarian
HCT-15 colon = test system: HCT-15 colon
RPMI-8226 leukemia = test system: RPMI-8226 leukemia
EKVX NSCLC = test system: EKVX NSCLC
IGROV1 ovarian = test system: IGROV1 ovarian
MDA-MB-435 = test system: MDA-MB-435
OVCAR-4 ovarian = test system: OVCAR-4 ovarian
MALME-3M melanoma = test system: MALME-3M melanoma
CCRF-CEM leukemia = test system: CCRF-CEM leukemia
RXF 393 renal = test system: RXF 393 renal
SF-268 CNS = test system: SF-268 CNS
HL-60(TB) leukemia = test system: HL-60(TB) leukemia
MCF7 breast = test system: MCF7 breast
OVCAR-3 ovarian = test system: OVCAR-3 ovarian
MOLT-4 leukemia = test system: MOLT-4 leukemia
M14 melanoma = test system: M14 melanoma
U251 CNS = test system: U251 CNS
MDA-N = test system: MDA-N
NCI/ADR-RES ovarian = test system: NCI/ADR-RES ovarian
HCC-2998 colon = test system: HCC-2998 colon
NCI-H226 lung = test system: NCI-H226 lung
T-47D breast = test system: T-47D breast
HOP-62 NSCLC = test system: HOP-62 NSCLC
SF-295 CNS = test system: SF-295 CNS
A549 NSCLC = test system: A549 NSCLC
OVCAR-5 ovarian = test system: OVCAR-5 ovarian
SK-MEL-5 melanoma = test system: SK-MEL-5 melanoma
HCT-116 colon = test system: HCT-116 colon
UO-31 renal = test system: UO-31 renal
SW-620 colon = test system: SW-620 colon
SK-MEL-2 melanoma = test system: SK-MEL-2 melanoma
786-0 renal = test system: 786-0 renal
TK-10 renal = test system: TK-10 renal
PC-3 prostate = test system: PC-3 prostate
K-562 leukemia = test system: K-562 leukemia
KM12 colon = test system: KM12 colon
SF-539 CNS = test system: SF-539 CNS
NCI-H522 lung = test system: NCI-H522 lung
HOP-92 NSCLC = test system: HOP-92 NSCLC
LOX IMVI melanoma = test system: LOX IMVI melanoma
A498 renal = test system: A498 renal

With O=S(=O)(c1ccc(Cl)cc1)c1ccccc1C1=NCCN1 the TGI (ACHN renal) was > 100 µM, the TGI (BT-549 breast) was > 100 µM and the TGI (HS 578T breast) was > 100 µM. The TGI (DU-145 prostate) was > 100 µM, the TGI (SNB-19 CNS) was > 100 µM and the TGI (CAKI-1 renal) was > 100 µM. For the same compound, the TGI (UACC-257 melanoma) was > 100 µM, the TGI (SK-MEL-28 melanoma) was > 100 µM and the TGI (COLO 205 colon) was > 100 µM. The TGI (SNB-75 CNS) was > 100 µM, the TGI (HT29 colon) was > 100 µM and the TGI (SN12C renal) was > 100 µM. For the same compound, the TGI (NCI-H460 lung) was > 100 µM, the TGI (OVCAR-8 ovarian) was > 100 µM and the TGI (NCI-H23 lung) was > 100 µM. For the same compound, the TGI (UACC-62 melanoma) was > 100 µM, the TGI (MDA-MB-231 breast) was > 100 µM and the TGI (SK-OV-3 ovarian) was > 100 µM. The TGI (HCT-15 colon) was > 100 µM, the TGI (RPMI-8226 leukemia) was > 100 µM and the TGI (EKVX NSCLC) was > 100 µM. For the same compound, the TGI (IGROV1 ovarian) was > 100 µM, the TGI (MDA-MB-435) was > 100 µM and the TGI (OVCAR-4 ovarian) was > 100 µM. For the same compound, the TGI (MALME-3M melanoma) was > 100 µM, the TGI (CCRF-CEM leukemia) was > 100 µM and the TGI (RXF 393 renal) was > 100 µM. For the same compound, the TGI (SF-268 CNS) was > 100 µM, the TGI (HL-60(TB) leukemia) was > 100 µM and the TGI (MCF7 breast) was > 100 µM. For the same compound, the TGI (OVCAR-3 ovarian) was > 100 µM, the TGI (MOLT-4 leukemia) was > 100 µM and the TGI (M14 melanoma) was > 100 µM. The TGI (U251 CNS) was > 100 µM, the TGI (MDA-N) was > 100 µM and the TGI (NCI/ADR-RES ovarian) was > 100 µM. For the same compound, the TGI (HCC-2998 colon) was > 100 µM, the TGI (NCI-H226 lung) was > 100 µM and the TGI (T-47D breast) was > 100 µM. The TGI (HOP-62 NSCLC) was > 100 µM, the TGI (SF-295 CNS) was > 100 µM and the TGI (A549 NSCLC) was > 100 µM. The TGI (OVCAR-5 ovarian) was > 100 µM, the TGI (SK-MEL-5 melanoma) was > 100 µM and the TGI (HCT-116 colon) was > 100 µM. For the same compound, the TGI (UO-31 renal) was > 100 µM, the TGI (SW-620 colon) was > 100 µM and the TGI (SK-MEL-2 melanoma) was > 100 µM. The TGI (786-0 renal) was > 100 µM, the TGI (TK-10 renal) was > 100 µM and the TGI (PC-3 prostate) was > 100 µM. The TGI (K-562 leukemia) was > 100 µM and the TGI (KM12 colon) was > 100 µM.
With Nc1cccc2nnccc12 the TGI (ACHN renal) was > 100 µM, the TGI (BT-549 breast) was > 100 µM and the TGI (HS 578T breast) was > 100 µM. The TGI (DU-145 prostate) was > 100 µM, the TGI (SNB-19 CNS) was > 100 µM and the TGI (CAKI-1 renal) was > 100 µM. For the same compound, the TGI (UACC-257 melanoma) was > 100 µM, the TGI (COLO 205 colon) was > 100 µM and the TGI (SNB-75 CNS) was > 100 µM. For the same compound, the TGI (HT29 colon) was > 100 µM, the TGI (SN12C renal) was > 100 µM and the TGI (NCI-H460 lung) was > 100 µM. For the same compound, the TGI (OVCAR-8 ovarian) was > 100 µM, the TGI (NCI-H23 lung) was > 100 µM and the TGI (UACC-62 melanoma) was > 100 µM. The TGI (MDA-MB-231 breast) was > 100 µM, the TGI (SK-OV-3 ovarian) was > 100 µM and the TGI (HCT-15 colon) was > 100 µM. For the same compound, the TGI (RPMI-8226 leukemia) was > 100 µM, the TGI (EKVX NSCLC) was > 100 µM and the TGI (IGROV1 ovarian) was > 100 µM. For the same compound, the TGI (MDA-MB-435) was > 100 µM, the TGI (MALME-3M melanoma) was > 100 µM and the TGI (CCRF-CEM leukemia) was > 100 µM. The TGI (RXF 393 renal) was > 100 µM, the TGI (SF-539 CNS) was > 100 µM and the TGI (SF-268 CNS) was > 100 µM. For the same compound, the TGI (HL-60(TB) leukemia) was > 100 µM, the TGI (MCF7 breast) was > 100 µM and the TGI (M14 melanoma) was > 100 µM. The TGI (U251 CNS) was > 100 µM, the TGI (MDA-N) was > 100 µM and the TGI (NCI/ADR-RES ovarian) was > 100 µM. For the same compound, the TGI (NCI-H226 lung) was > 100 µM, the TGI (T-47D breast) was > 100 µM and the TGI (SF-295 CNS) was > 100 µM. For the same compound, the TGI (NCI-H522 lung) was > 100 µM, the TGI (A549 NSCLC) was > 100 µM and the TGI (OVCAR-5 ovarian) was > 100 µM. For the same compound, the TGI (SK-MEL-5 melanoma) was > 100 µM, the TGI (HCT-116 colon) was > 100 µM and the TGI (UO-31 renal) was > 100 µM. The TGI (SW-620 colon) was > 100 µM, the TGI (SK-MEL-2 melanoma) was > 100 µM and the TGI (786-0 renal) was > 100 µM. For the same compound, the TGI (TK-10 renal) was > 100 µM, the TGI (HOP-92 NSCLC) was > 100 µM and the TGI (PC-3 prostate) was > 100 µM. For the same compound, the TGI (KM12 colon) was > 100 µM.
With Cc1cc2c(O)c(c1)CN(Cc1ccccc1)Cc1cc(C)cc(c1O)CN(Cc1ccccc1)Cc1cc(C)cc(c1O)CN(Cc1ccccc1)C2 the TGI (ACHN renal) was > 100 µM, the TGI (BT-549 breast) was > 100 µM and the TGI (HS 578T breast) was > 100 µM. For the same compound, the TGI (DU-145 prostate) was > 100 µM, the TGI (SNB-19 CNS) was > 100 µM and the TGI (CAKI-1 renal) was > 100 µM. The TGI (UACC-257 melanoma) was > 100 µM, the TGI (SK-MEL-28 melanoma) was > 100 µM and the TGI (COLO 205 colon) was > 100 µM. The TGI (SNB-75 CNS) was > 100 µM, the TGI (HT29 colon) was > 100 µM and the TGI (SN12C renal) was > 100 µM. For the same compound, the TGI (NCI-H460 lung) was > 100 µM, the TGI (OVCAR-8 ovarian) was > 100 µM and the TGI (NCI-H23 lung) was > 100 µM. For the same compound, the TGI (UACC-62 melanoma) was > 100 µM, the TGI (MDA-MB-231 breast) was > 100 µM and the TGI (SK-OV-3 ovarian) was > 100 µM. For the same compound, the TGI (HCT-15 colon) was > 100 µM, the TGI (RPMI-8226 leukemia) was > 100 µM and the TGI (IGROV1 ovarian) was > 100 µM. For the same compound, the TGI (MDA-MB-435) was > 100 µM, the TGI (OVCAR-4 ovarian) was > 100 µM and the TGI (MALME-3M melanoma) was > 100 µM. For the same compound, the TGI (CCRF-CEM leukemia) was > 100 µM, the TGI (RXF 393 renal) was > 100 µM and the TGI (SF-539 CNS) was > 100 µM. For the same compound, the TGI (SF-268 CNS) was > 100 µM, the TGI (HL-60(TB) leukemia) was > 100 µM and the TGI (MCF7 breast) was > 100 µM. The TGI (OVCAR-3 ovarian) was > 100 µM, the TGI (MOLT-4 leukemia) was > 100 µM and the TGI (LOX IMVI melanoma) was > 100 µM. The TGI (M14 melanoma) was > 100 µM, the TGI (U251 CNS) was > 100 µM and the TGI (MDA-N) was > 100 µM. The TGI (NCI/ADR-RES ovarian) was > 100 µM, the TGI (HCC-2998 colon) was > 100 µM and the TGI (NCI-H226 lung) was > 100 µM. For the same compound, the TGI (T-47D breast) was > 100 µM, the TGI (HOP-62 NSCLC) was > 100 µM and the TGI (SF-295 CNS) was > 100 µM. For the same compound, the TGI (A498 renal) was > 100 µM, the TGI (NCI-H522 lung) was > 100 µM and the TGI (A549 NSCLC) was > 100 µM. For the same compound, the TGI (OVCAR-5 ovarian) was > 100 µM, the TGI (SK-MEL-5 melanoma) was > 100 µM and the TGI (HCT-116 colon) was > 100 µM. The TGI (UO-31 renal) was > 100 µM, the TGI (SW-620 colon) was > 100 µM and the TGI (SK-MEL-2 melanoma) was 95.2 µM. For the same compound, the TGI (786-0 renal) was > 100 µM, the TGI (TK-10 renal) was > 100 µM and the TGI (PC-3 prostate) was > 100 µM. The TGI (K-562 leukemia) was > 100 µM and the TGI (KM12 colon) was > 100 µM.

— PubChem BioAssay (NCI)
